Experimental data: patent publication US20170290889A1, “METHODS AND COMPOSITIONS FOR TREATING DYSBIOSIS AND GASTROINTESTINAL AND INFLAMMATORY DISORDERS” (New York University, priority 2016, published 2017)

Legend:
Ascaris spp. = experiment: Albendazole deworming of Orang Asli (formalin-ether sedimentation, Kato Katz); assay type: in vivo, human
T. trichiura = experiment: as above; assay type: in vivo, human
Hookworm = experiment: as above; assay type: in vivo, human
Bacteroides vulgatus = experiment: B. vulgatus colonization (stool, small intestinal tissue) in Nod2−/− mice, reported together with goblet cells; assay type: in vivo; conditions: Nod2−/− mice injected IP with complex of 5 μg recombinant cytokine and 25 μg anti-cytokine antibody for 21 days
Clostridiales = experiment: 16S sequencing of mouse stool / small intestinal microbiota (LEfSe); assay type: in vivo; conditions: stool of uninfected Nod2−/− mice treated with recombinant cytokine, 16S / LEfSe
[1] = test system: M2 macrophage activation genes; experiment: RNA-seq gene expression analysis of small intestinal tissue (ileum) of Nod2−/− mice treated with rIL-13 or PBS; assay type: in vivo; conditions: for Log2 Fold Change: Nod2−/− mice treated with recombinant IL-13 compared to PBS controls
Description: Mice. Nod2−/−, Rag1−/−, Nod2−/−, and Stat6−/− mice on the C57BL/6 background were previously described and bred onsite in an MNV/Helicobacter-free specific pathogen free (SPF) facility at NYU School of Medicine (6, 23). Wild-type (WT) C57BL/6 mice were purchased from Jackson Laboratory and bred onsite to generate controls for experiments. Bone marrow chimeras were generated by lethally irradiating 8-week old female recipient mice (1100 CGy in two divided doses) followed by intravenous (i.v.) injection of 5×10^6 T cell-depleted bone marrow cells from donor female mice. For anti-CD4 treatment, mice were infected with T. muris and injected intra-peritoneally (IP) with 0.25 mg anti-CD4 (clone GK1.5) or anti-IgG2b isotype control (clone LTF-2) (BioXCell) every 3 days for 21 days and animals were sacrificed on day 21. For anti-IL13 treatment, mice were infected with H. polygyrus and injected IP with 0.15 mg anti-IL13 (clone 1316H) (eBioscience) or anti-IgG1 isotype control (clone 43414) (R&D Systems) starting on day 3 post-infection every 3 days for 12 days and animals were sacrificed on day 12. For recombinant IL-13 and IL-4 experiments, mice were injected IP with a complex of 25 μg of anti-IL13 (eBio1316H) and 5 μg of recombinant IL-13 (Peprotech cat #210-13), or a complex of 25 μg of anti-IL4 (BioXcel) and 5 μg of recombinant IL-4 (Peprotech cat #214-14) for 21 days and mice were sacrificed on day 21.
Gene Expression Analysis. RNA was isolated from one cm of small intestinal tissue (ileum) from Nod2^−/− mice treated with rIL-13 or PBS, or WT mice treated with PBS for normalization. An RNA library was prepared using the TruSeq stranded total RNA, with the RiboZero Gold kit and samples were sequenced on the Illumina HiSeq to generate single-end 50 bp reads. Raw sequencing reads were aligned to the mouse reference genome mm10 and the RefSeq reference transcriptome using TopHat (v2.0.12) with the alignment parameter—library-type fr-firststrand (28). Reads with mappability score (MAPQ) <30 were removed. The total number of filtered reads were counted for each gene using htseq-count with the parameters—stranded=reverse and—mode=union. Singleton genes (i.e. genes with total count <1) were filtered and the resulting count matrix was used for differential analysis using the DESeq2 workflow with default parameters (29, 30). Differential genes with rIL-13 treatment were identified at FDR 10%. Pathway analysis was performed using the DAVID platform as previously described (6).

[2] = T. trichiura, post-treatment n=64

CCCSc1ccc2nc(NC(=O)OC)[nH]c2c1 [albendazole]
Cure rate (%) (Ascaris spp.; 20 days): 80.0%
Number of infected persons cured after deworming (Ascaris spp.; 20 days): 8
range of epg after treatment (Ascaris spp.; after albendazole 3×400 mg): 22-4999 epg
Light-intensity infections after treatment (%) (Ascaris spp.; post-treatment n=64): 3.1%
Light-intensity infections after treatment, number (Ascaris spp.; post-treatment n=64): 2
Total infections after treatment (%) (Ascaris spp.; post-treatment n=64): 3.1%
Total infections after treatment, number (Ascaris spp.; post-treatment n=64): 2
Cure rate (%) (T. trichiura; T. trichiura, 20 days, albendazole 3 doses, 400 mg/day): 32.9%
range of epg after treatment (T. trichiura; T. trichiura, after albendazole 3×400 mg): 22-2,266 epg
Light-intensity infections after treatment (%) (T. trichiura; [2]): 70.3%
Light-intensity infections after treatment, number (T. trichiura; [2]): 45
Moderate-intensity infections after treatment (%) (T. trichiura; [2]): 3.1%
Moderate-intensity infections after treatment, number (T. trichiura; [2]): 2
Total infections after treatment (%) (T. trichiura; [2]): 73.4%
Total infections after treatment, number (T. trichiura; [2]): 47
Trichuris trichiura egg burden (eggs per gram of feces, Kato-Katz) (T. trichiura; post treatment with Albendazole (3 doses, 400 mg/day)): reduced
Cure rate (%) (Hookworm; 20 days): 96 .3%
Number of infected persons cured after deworming (Hookworm; 20 days): 26
range of epg after treatment (Hookworm; after albendazole 3×400 mg): 22 epg
Light-intensity infections after treatment (%) (Hookworm; post-treatment n=64): 1.6%
Light-intensity infections after treatment, number (Hookworm; post-treatment n=64): 1
Total infections after treatment (%) (Hookworm; post-treatment n=64): 1.6%
Total infections after treatment, number (Hookworm; post-treatment n=64): 1

B1: rIL-4: recombinant IL-4 (Peprotech cat #214-14), type 2 cytokine, injected IP as complex with anti-IL4 (protein, UniProt P07750 21-140, looked up)
Interleukin-4: HIHGCDKNHLREIIGILNEVTGEGTPCTEMDVPNVLTATKNTTESELVCRASKVLRIFYLKHGKTPCLKKNSSVLMELQRLFRAFRCLDSSISCTMNESKSTSLKDFLESLKSIMQMDYS
modifications: complexed with anti-IL-4 antibody
notes: recombinant IL-4 (Peprotech cat #214-14), type 2 cytokine, injected IP as complex with anti-IL4
effect on B. vulgatus and goblet cells (Bacteroides vulgatus): sufficient to reproduce the effect of helminth infection
expansion of Clostridiales (Clostridiales): expansion of Clostridiales was also observed
expansion of Clostridiales (Clostridiales; listed as IL-4): induces the expansion of bacteria from the class Clostridia in the GI tract

B2: rIL-13: recombinant IL-13 (Peprotech cat #210-13), type 2 cytokine, injected IP as complex with anti-IL13 (protein, UniProt P20109 19-131, looked up)
Interleukin-13: APGPVPRSVSLPLTLKELIEELSNITQDQTPLCNGSMVWSVDLAAGGFCVALDSLTNISNCNAIYRTQRILHGLCNRKAPTTVSSLPDTKIEVAHFITKLLSYTKQLFRHGPF
modifications: complexed with anti-IL-13 antibody
notes: recombinant IL-13 (Peprotech cat #210-13), type 2 cytokine, injected IP as complex with anti-IL13
effect on B. vulgatus and goblet cells (Bacteroides vulgatus): sufficient to reproduce the effect of helminth infection
expansion of Clostridiales (Clostridiales): expansion of Clostridiales was also observed
expansion of Clostridiales (Clostridiales; listed as IL-13): induces the expansion of bacteria from the class Clostridia in the GI tract
Log2 Fold Change ([1]; gene Arg1 (NM_007482)): 1.468
Log2 Fold Change ([1]; gene Ccl8 (NM_021443)): 1.5
Log2 Fold Change ([1]; gene Cd5l (NM_009690)): 1.504
Log2 Fold Change ([1]; gene Chi3l3 (NM_009892)): 2.681
Log2 Fold Change ([1]; gene Ear11 (NM_053113)): 1.698
Log2 Fold Change ([1]; gene Gm11428 (NM_001081957)): 1.53
Log2 Fold Change ([1]; gene Retnla (NM_020509)): 1.625
Log2 Fold Change ([1]; gene Saa3 (NM_011315)): 1.846
Log2 Fold Change ([1]; gene Serpina3n (NM_009252)): 1.58
RNA-seq analysis of intestinal tissues: response ([1]; rIL-13 treated Nod2−/− mice): wound healing response characterized by expression of M2 macrophage genes
